From patent US7998681B2, “Diagnosis and therapy of antibody-mediated inflammatory auto-immune disorders” (Los Angeles Biomedical Research Institute at Harbor-UCLA …, priority 2000, dated 2011)

Tests used:
Type in all cases: cell-based, human
IL-16 [1] = assay: IL-16 ELISA of medium from treated fibroblasts, GD donors; details: GD, limit of detection 20 pg/ml
Excerpt: (§1) In addition to its therapeutic aspects, the present invention also relates to a diagnostic method for detecting the presence of antibody-activated fibroblasts in the patient. Applicants believe that several auto immune diseases or disorders are associated with antibody-activated fibroblasts. […] Altered levels of these chemoattractants can be detected in various biological samples in mammals, preferably humans. Levels of IL-16 and/or RANTES may be monitored in a patient, using standard techniques, as an indication of the deleterious aspects of the disease condition. Biological samples, including but not limited to serum, vitreous humor, aqueous humor, synovial fluid, and tissue, will be drawn from the patient using standard techniques. Particularly preferred are serum samples. The measurement of the IL-16 and RANTES levels may be monitored using any method possible to detect the levels of these proteins in biological samples. A preferred method of analysis is by ELISA as described in Sciaky, D. et al., J. Immunol. 164(7):3806-14, 2000. An ELISA specific for IL-16 can be used to assess the levels released by fibroblasts as described previously in Lim, K. G. et al., J. Immunol. 156(7): 2566-70, 1996. An ELISA specific for RANTES can be used according to the manufacturer's specification (BioSource Intl., Camarillo, Calif.).
(§2) The levels of IL-16 and RANTES were then assessed with specific ELISAs. The ELISA assay for IL-16 is performed essentially as discussed in Sciaky D., Brazer, W., Center, D. M., Cruikshank, W. W. and Smith, T. J.: Cultured human fibroblasts express constitutive IL-16 mRNA: Cytokine induction of active IL-16 protein synthesis through a caspase-3-dependent mechanism. J. Immunol. 164(7):3806-14, 2000). An ELISA (BioSource) for RANTES was performed according to the manufacturer's instructions.

IL-16 [2] = assay: IL-16 ELISA of medium from treated fibroblasts, normal donors; details: limit of detection 20 pg/ml
Excerpt: (§3) In addition to its therapeutic aspects, the present invention also relates to a diagnostic method for detecting the presence of antibody-activated fibroblasts in the patient. Applicants believe that several auto immune diseases or disorders are associated with antibody-activated fibroblasts. Applicants have shown that increased activation of fibroblasts by auto-antibodies can be monitored by determining the levels of IL-16 and/or RANTES production in a patient. Altered levels of these chemoattractants can be detected in various biological samples in mammals, preferably humans. Levels of IL-16 and/or RANTES may be monitored in a patient, using standard techniques, as an indication of the deleterious aspects of the disease condition. Biological samples, including but not limited to serum, vitreous humor, aqueous humor, synovial fluid, and tissue, will be drawn from the patient using standard techniques. Particularly preferred are serum samples. The measurement of the IL-16 and RANTES levels may be monitored using any method possible to detect the levels of these proteins in biological samples. A preferred method of analysis is by ELISA as described in Sciaky, D. et al., J. Immunol. 164(7):3806-14, 2000. An ELISA specific for IL-16 can be used to assess the levels released by fibroblasts as described previously in Lim, K. G. et al., J. Immunol. 156(7): 2566-70, 1996. An ELISA specific for RANTES can be used according to the manufacturer's specification (BioSource Intl., Camarillo, Calif.).
as §2, with “instructions. In an analysis of over a dozen strains, TAO specific IgG elicit substantial induction of IL-16 and RANTES and in no case were normal fibroblasts so affected.” for “instructions.”

RANTES [3] = assay: RANTES ELISA of medium from treated fibroblasts, GD donors; details: GD, limit of detection 15 pg/ml
Excerpt: as §1, §2

RANTES [4] = assay: RANTES ELISA of medium from treated fibroblasts, normal donors; details: limit of detection 15 pg/ml
Excerpt: as §3
as §2, with “instructions. In an analysis of over a dozen strains, TAO specific IgG elicit substantial induction of IL-16 and RANTES and in no case were normal fibroblasts so affected.” for “instructions.”

[5] = system: Thy-1^+ and Thy-1^− fibroblasts; assay: IL-8 production in Thy-1+ and Thy-1- orbital fibroblast subsets; details: IL-1β treated
Excerpt: FIGS. 11A-11C show differential production in TAO-derived Thy-1^+ and Thy-1^− subsets of PGE2 (11A) and IL-8 in response to IL-1β stimulation (11B), and IL-16 in response to stimulation with Graves' IgG (11C).
With regard to cytokine expression, both subsets fail to generate detectable IL-6 under basal culture conditions but synthesize high levels of the cytokine when treated with IL-1β. The magnitude of these responses is similar in the two fibroblast populations. Similarly, both subsets express low basal levels of IL-8 (FIG. 11B). When treated with IL-1β, Thy-1^− fibroblasts synthesize and release extremely high levels of IL-8 and this induction is substantially (5.5-fold) greater than that occurring in the Thy-1^+ subset.

IL-1β: pro-inflammatory cytokine used to activate fibroblasts
IL-16 (IL-16 [1]; strain 1, Orbit): 71 ± 9 pg/mL | IL-16 (IL-16 [1]; strain 2, Orbit): 82 ± 9 pg/mL | IL-16 (IL-16 [1]; strain 3, Abdominal skin): 82 ± 9 pg/mL | IL-16 (IL-16 [1]; strain 4, Orbit): 194 ± 29 pg/mL | IL-16 (IL-16 [1]; strain 6, Neck skin): 116 ± 27 pg/mL | IL-16 (IL-16 [1]; strain 7, Pretibial skin): 194 ± 29 pg/mL | IL-16 (IL-16 [1]; strain 8, Pretibial skin): 79 ± 11 pg/mL | IL-16 (IL-16 [1]; strain 9, Orbit): 218 ± 33 pg/mL | IL-16 (IL-16 [1]; strain 10, Orbit): 246 ± 32 pg/mL | IL-16 (IL-16 [1]; strain 11, Orbit): 94 ± 12 pg/mL | IL-16 (IL-16 [2]; strain 12, Orbit): 56 ± 10 pg/mL | IL-16 (IL-16 [2]; strain 14, Orbit): 68 ± 9 pg/mL | IL-16 (IL-16 [2]; strain 15, Extremity Skin): 138 ± 15 pg/mL | IL-16 (IL-16 [2]; strain 16, Extremity Skin): 98 ± 19 pg/mL | RANTES (RANTES [3]; strain 1, Orbit): 84 ± 8 pg/mL | RANTES (RANTES [3]; strain 2, Orbit): 116 ± 11 pg/mL | RANTES (RANTES [3]; strain 3, Abdominal skin): 116 ± 11 pg/mL | RANTES (RANTES [3]; strain 4, Orbit): 128 ± 26 pg/mL | RANTES (RANTES [3]; strain 6, Neck skin): 253 ± 42 pg/mL | RANTES (RANTES [3]; strain 7, Pretibial skin): 128 ± 26 pg/mL | RANTES (RANTES [3]; strain 9, Orbit): 78 ± 21 pg/mL | RANTES (RANTES [3]; strain 10, Orbit): 214 ± 30 pg/mL | RANTES (RANTES [3]; strain 11, Orbit): 69 ± 6 pg/mL | RANTES (RANTES [4]; strain 12, Orbit): 42 ± 9 pg/mL | RANTES (RANTES [4]; strain 14, Orbit): 79 ± 11 pg/mL | RANTES (RANTES [4]; strain 15, Extremity Skin): 173 ± 12 pg/mL | RANTES (RANTES [4]; strain 16, Extremity Skin): 125 ± 9 pg/mL | IL-8 induction in Thy-1^− relative to Thy-1^+ subset [5]: 5.5 fold
